Assay results: patent US20220402867A1, “SULFO-SUBSTITUTED BIARYL COMPOUND OR SALT THEREOF, PREPARATION METHOD THEREFOR, AND USE THEREOF” (Shanghai Litedd Co., Ltd., priority 2019, published 2022)

Legend:
[1] = Pharmacokinetic (PK) assay in mice; type: in vivo; details: CD-1 mice
Description: The PK of each compound was determined as follows: 6 CD-1 mice (obtained from Shanghai Lingchang Biotechnology Co., Ltd.) were divided into two groups, 3 mice in each group. One group was administered intravenously at a dose of 1 mg/kg, and the vehicle was 5% DMSO/40% PEG400/55% (20% 3-CD); one group was administered by oral gavage at a dose of 5 mg/kg, and the vehicle was DMSO/1% methylcellulose (1:99). Blood samples were collected from saphenous vein of lower leg in each group at 0, 0.083, 0.25, 0.5, 1, 2, 4, 6, 8 and 24 h after administration. Approximately 40 μL of the blood samples were collected into anticoagulant tubes containing EDTA-K2. Immediately after collection, the tubes were inverted at least 5 times to ensure uniform mixing, and then placed on ice. The blood samples collected at each time point were centrifuged at 4° C., 8000 rpm for 5 minutes to obtain plasma. Another 1.5 mL centrifuge tube was marked with the compound name, animal number, and time point, and the plasma was transferred to this tube. The plasma was stored at −80° C. until analysis.
Compound concentrations in plasma were determined by UPLC-MS/MS method, and the pharmacokinetic parameters were calculated by Phoenix WinNolin 6.4 pharmacokinetic software on the obtained data.

GST-RORγ LBD (263-509) = target: T1, GST-RORγ LBD (263-509) (Homo sapiens, UniProt P51449); experiment: TR-FRET assay of agonistic activity on RORγ receptor; type: biochemical; details: for EC50: TR-FRET, GST-RORγ LBD with Biotin-SRC1
T1 construct: GST-RORγ LBD ((263-509) (produced at ChemPartner))
T1 sequence (P51449 263-509): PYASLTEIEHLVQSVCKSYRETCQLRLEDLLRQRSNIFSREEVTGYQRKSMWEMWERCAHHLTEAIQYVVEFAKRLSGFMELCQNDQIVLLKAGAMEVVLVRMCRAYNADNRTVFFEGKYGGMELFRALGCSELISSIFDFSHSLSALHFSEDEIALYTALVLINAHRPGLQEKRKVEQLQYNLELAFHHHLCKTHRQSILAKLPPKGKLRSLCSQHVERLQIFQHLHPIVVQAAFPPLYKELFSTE
Description: A time-resolved fluorescence resonance energy transfer (TR-FRET) assay was used for the compounds of the present disclosure, to determine the agonistic activity of the compounds on the RORγ protein receptor. The agonistic activity is expressed by the concentration for 50% of maximal effect (EC50). The experiment was performed basically with reference to the methods described in ONCOIMMUNOLOGY, 2016, VOL. 5, NO. 12, e1254854.
1. Preparation of RORγ Basal Buffer
A 100 mL basal buffer was prepared, mixed homogeneously and stored for use;
The compounds of the examples shown in the table below were prepared into solutions with DMSO as the solvent, serially diluted at 3-fold dilution to 10 concentrations starting from 10 mM, and added to the corresponding wells of a 384-well plate with each concentration of each compound in duplicate;
a. A 75 nM solution of GST-RORγ LBD ((263-509) (produced at ChemPartner)) and a 4 nM solution of Biotin-SRC1 (Glsbiochem) were prepared with the above basal buffer. The two solutions were 1:1 mixed evenly, and 10 μL of the mixed solution was added into each well of the above 384-well plate. The plate was immediately centrifugated at 1000 rpm for 10 seconds; b. A 1 nM solution of Anti-GST Eu (Cisbio, #61GSTKLA) and a 50 nM solution of SA-APC (Cisbio, […]) were prepared with the above basal buffer. The two solutions were 1:1 mixed evenly, and 10 μL of the mixed solution was added into each well of the above 384-well plate. The plate was immediately centrifugated at 1000 rpm for 10 seconds; c. The resulting 384-well plate was incubated at room temperature for 15 minutes. Data were read on an Envision microplate reader, EC50 values and E max % were calculated.
a. Readings were taken at 665 nm and 615 nm wavelengths respectively on the Envision Microplate Reader, and the ratios between them were normalized. b. Calculation was carried out with the following equation: […]
wherein X is the reading of compounds, Min is the reading of the blank solution, and Max is the reading of 10 μM SRC. c. The concentration-response curve data were fitted by a four-parameter logistic nonlinear regression model, and Emax was the TOP value of the fitted curve.

[2] = target: T2, RORγt (RORγ-LBD chimeric receptor) (Homo sapiens, UniProt P51449); experiment: Luciferase reporter gene assay of RORγt agonistic activity in HEK293T cells; type: cell-based; design: Emax: dose or concentration left out as unconfirmed; details: for EC50: HEK293T, GAL4 luciferase reporter, read-out: EC50; for Emax: HEK-293T
T2 construct: host or cells: HEK293T
T2 sequence (P51449 269-508 limits assumed): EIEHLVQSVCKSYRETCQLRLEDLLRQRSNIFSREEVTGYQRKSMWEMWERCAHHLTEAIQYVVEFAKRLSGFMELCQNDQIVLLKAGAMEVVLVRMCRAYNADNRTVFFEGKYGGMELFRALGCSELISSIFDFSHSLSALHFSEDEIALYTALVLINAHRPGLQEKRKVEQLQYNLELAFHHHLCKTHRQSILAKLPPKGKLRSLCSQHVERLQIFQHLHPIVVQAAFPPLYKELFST
Excerpt: This assay was basically carried out according to the method described in the literature ONCOIMMUNOLOGY, 2016, VOL. 5, NO. 12, e1254854.
The RORγ-LBD coding sequence was inserted into pBIND plasmid (Promega, E1581). This expression vector and a reporter vector (pGL4.35 carrying a stably integrated luciferase reporter gene driven by GAL4 promoter) were co-expressed in HEK293T host cells. When the agonist binds to the corresponding chimeric receptor, the chimeric receptor binds to the GAL4 binding site on the reporter gene carrier and stimulates reporter gene expression. The agonistic activity of the compound on RORγ was determined according to the intensity of the chemiluminescence signal.
1.1 All test compounds were serially diluted at 3-fold dilution with DMSO, with 10 serial dilutions starting from 10 mM; LIT-00093 solution was prepared similarly. […] 1.4 The compound plate was sealed and shaken for 5 min.
Cells were cultured according to ATCC standard operation, and 6*10^6 HEK293T cells were seeded into 100 mm cell culture dishes, cultured overnight in a 37° C., 5% CO2 incubator, and then transfected. Compounds of corresponding concentrations were added for treatment, and the Steady-Glo™ kit (Lot E 2520) was used for further detection.
Chemiluminescence values were detected with Envision 2104; EC50 values were calculated.
% Activity was calculated with the following equation: […]
RLU: […] R L Upositive: average value of positive control R L Uvehicle: average value of negative control
The log values of the compound concentration and % Activity were fitted using Graphad 8.0, to calculate EC50s of the compounds.

[3] = Metabolic stability in human liver microsomes; type: in vitro ADME; details: for microsomal CLint: 0.5 mg protein/mL
Excerpt: (§1) According to standard methods of in vitro metabolic stability studies in the art, eg., the methods described in Kerns, Edward H. and Di Li (2008). Drug-like Properties: Concepts, Structure Design and Methods: from ADME to Toxicity Optimization. San Diego: Academic Press; Di, Li et al., Optimization of a Higher Throughput Microsomal Stability Screening Assay for Profiling Drug Discovery Candidates, J. Biomol. Screen. 2003, The method described in 8(4), 453, the liver microsomal metabolic stability test of the compounds of the present disclosure was carried out analogously as follows.
(§2) The incubation system contained 0.5 mg protein/mL microsomes, cofactors, and PBS, was pre-incubated at 37° C. for 3 min, and then added the substrate (i.e., the test compounds) to initiate the reaction. Samples were taken at 0, 1, 5, 10, 15, 20, 30 and 60 min from the start of the reaction, and an appropriate terminator was added to terminate the reaction.
(§3) The terminator was an ice acetonitrile solution containing 100 ng/mL tolbutamide and 100 ng/mL labetalol.
(§4) Sample treatment (n=3): each appropriate sample was added, vortexed and centrifuged at high speed. The supernatants were collected, and the substrate was detected by HPLC-MS/MS. The peak area at the 0 min was taken as 100%. The peak areas at other time points were converted to percentage of the remaining amount. The natural logarithms of the percentage of remaining amount at each time point was plotted against the incubation time, and the slope (−k) was calculated by linear regression. Then, Clint (uL/min/mg) and half-life (T½, min) of the compounds were calculated following the equation of the inherent clearance rate (Clint)=(k* volume of incubation solution)/mass of liver microsomes.

[4] = Metabolic stability in mouse liver microsomes; type: in vitro ADME, CD-1 mice; details: for half-life: CD-1; for microsomal CLint: CD-1, 0.5 mg protein/mL
Excerpt: as §1, §2, §3, §4

[5] = maximum activation rate, TOP of fitted curve

SMILES	CL_obs ([1]; IV 1 mg/kg, values marked **)	AUC(0-t) ([1]; mouse, plasma, IV 1 mg/kg)	Cmax ([1]; mouse, plasma, IV 1 mg/kg)	half-life ([1]; mouse, plasma, IV 1 mg/kg)	Vd ([1]; mouse, plasma, IV 1 mg/kg, values marked *, read-out: Vss)	bioavailability ([1]; mouse, plasma, Po 5 mg/kg vs IV 1 mg/kg)	AUC(0-t) ([1]; mouse, plasma, Po 5 mg/kg)	Cmax ([1]; mouse, plasma, Po 5 mg/kg)	half-life ([1]; mouse, plasma, Po 5 mg/kg)	EC50 (GST-RORγ LBD (263-509))	Emax % (GST-RORγ LBD (263-509); [5])	Emax (GST-RORγ LBD (263-509); [5])	EC50 [2]	Emax [2]	half-life [3]	microsomal CLint [3]	% Remaining (T = 60 min) [3]	% Remaining (T = 60 min) [4]	half-life [4]	microsomal CLint [4]
CCS(=O)(=O)c1ccc(CC(=O)Nc2cc(Cl)c(-c3ccc(S(=O)(=O)CC)cc3)c(Cl)c2)cc1 [Example 1, N-(2,6-Dichloro-4′-(ethylsulfonyl)-[1,1′-biphenyl]-4-yl)-2-(4-(ethylsulfonyl)phenyl)acetamide]	–	–	–	–	–	–	–	–	–	14.5 nM	–	213%	47 nM	87.1%	0.697 h	33.1 µL/min/mg	32.4%	11.70%	0.342 h	67.6 µL/min/mg
CS(=O)(=O)c1ccc(CC(=O)Nc2cc(Cl)c(-c3ccc(S(C)(=O)=O)cc3)c(Cl)c2)cc1 [Example 7, N-(2,6-Dichloro-4′-(methylsulfonyl)-[1,1′-biphenyl]-4-yl)-2-(4-(methylsulfonyl)phenyl)acetamide]	–	–	–	–	–	–	–	–	–	10 nM	–	169%	41 nM	39.4%	> 2.42 h	< 9.6 µL/min/mg	80.1%	88.20%	> 2.42 h	< 9.6 µL/min/mg
CS(=O)(=O)c1ccc(-c2c(Cl)cc(NC(=O)Cc3ccc(S(C)(=O)=O)cn3)cc2Cl)cc1 [Example 10, N-(2,6-Dichloro-4′-(methylsulfonyl)-[1,1′-biphenyl]-4-yl)-2-(5-(methylsulfonyl)pyridin-2-yl)acetamide]	–	–	–	–	–	–	–	–	–	114 nM	–	159%	1460 nM	59%	> 2.42 h	< 9.6 µL/min/mg	92.5%	89.90%	> 2.42 h	< 9.6 µL/min/mg
COCC(C(=O)Nc1ccc(-c2ccc(S(=O)(=O)C3CC3)cc2)c(C(F)(F)F)c1)c1ccc(S(C)(=O)=O)cc1 (centres unmarked) [Example 42, N-(4′-(Cyclopropylsulfonyl)-2-(trifluoromethyl)-[1,1′-biphenyl]-4-yl)-3-methoxy-2-(4-(methylsulfonyl)phenyl)propionamide]	–	–	–	–	–	–	–	–	–	12.6 nM	–	194%	105 nM	60.7%	–	–	–	–	–	–

More lines, now with the values ahead:

CL_obs ([1]; IV 1 mg/kg, values marked **)	AUC(0-t) ([1]; mouse, plasma, IV 1 mg/kg)	Cmax ([1]; mouse, plasma, IV 1 mg/kg)	half-life ([1]; mouse, plasma, IV 1 mg/kg)	Vd ([1]; mouse, plasma, IV 1 mg/kg, values marked *, read-out: Vss)	bioavailability ([1]; mouse, plasma, Po 5 mg/kg vs IV 1 mg/kg)	AUC(0-t) ([1]; mouse, plasma, Po 5 mg/kg)	Cmax ([1]; mouse, plasma, Po 5 mg/kg)	half-life ([1]; mouse, plasma, Po 5 mg/kg)	EC50 (GST-RORγ LBD (263-509))	Emax % (GST-RORγ LBD (263-509); [5])	Emax (GST-RORγ LBD (263-509); [5])	EC50 [2]	Emax [2]	half-life [3]	microsomal CLint [3]	% Remaining (T = 60 min) [3]	% Remaining (T = 60 min) [4]	half-life [4]	microsomal CLint [4]	SMILES
15.4** mL/min/kg	1060 ng·h/mL	601 ng/mL	1.7 h	2.02 L/kg	116%	6380 ng·h/mL	1450 ng/mL	2.72 h	24.6 nM	174.7%	–	–	–	–	–	–	–	–	–	CCS(=O)(=O)c1ccc(C(COC)C(=O)Nc2cc(Cl)c(-c3ccc(S(=O)(=O)C4CC4)cc3)c(Cl)c2)cc1 (single isomer, unassigned) [Example 41, (S)—N-(2,6-dichloro-4′-(cyclopropylsulfonyl)-[1,1′-biphenyl]-4-yl)-2-(4-(ethylsulfonyl)phenyl)-3-methoxypropionamide or (R)—N-(2,6-dichloro-4′-(cyclopropylsulfonyl)-[1,1′-biphenyl]-4-yl)-2-(4-(ethylsulfonyl)phenyl)-3-methoxypropionamide]
–	–	–	–	–	–	–	–	–	14 nM	–	223%	14 nM	50.5%	0.232 h	–	4.6%	–	–	–	CCS(=O)(=O)c1ccc(CC(=O)Nc2cc(Cl)c(-c3ccc(S(=O)(=O)C(C)C)cc3)c(Cl)c2)cc1 [Example 3, N-(2,6-Dichloro-4′-(isopropylsulfonyl)-[1,1′-biphenyl]-4-yl)-2-(4-(ethylsulfonyl)phenyl)acetamide]
–	–	–	–	–	–	–	–	–	7 nM	–	179%	139 nM	73.8%	–	–	–	–	–	–	CCS(=O)(=O)c1ccc(C(CO)C(=O)Nc2cc(Cl)c(-c3ccc(S(=O)(=O)C4CC4)cc3)c(Cl)c2)cc1 (centres unmarked) [Example 22-1, N-(2,6-Dichloro-4′-(cyclopropylsulfonyl)-[1,1′-biphenyl]-4-yl)-2-(4-(ethylsulfonyl)phenyl)-3-hydroxypropionamide]
–	–	–	–	–	–	–	–	–	13.3 nM	–	202%	93 nM	69.8%	–	–	–	–	–	–	CS(=O)(=O)c1ccc(C(CO)C(=O)Nc2cc(Cl)c(-c3ccc(S(=O)(=O)C4CC4)cc3)c(Cl)c2)cc1 (centres unmarked) [Example 33, N-(2,6-Dichloro-4′-(cyclopropylsulfonyl)-[1,1′-biphenyl]-4-yl)-2-(4-(methylsulfonyl)phenyl)-3-hydroxypropionamide]
